According to patent publication US9937133B2, “Treatment of fibrosis” (UCL BUSINESS PLC, priority 2014, dated 2018):
Where two headings read alike, the source gives them in different places.

Key:
Assay type in all cases: cell-based, human
[1] = tested on: F-PemI and F-PemU fibroblasts; assay: Collagen production of OcMMP fibroblasts after ALDH inhibition (collagen type I competitive ELISA)
Experimental: To investigate whether there was differential matrix production in OcMMP, primary conjunctival fibroblasts explanted from conjunctival tissue samples from OcMMP patients with (F-PemI) and without (F-PemU) and control (F-C) patients were analysed for their matrix production and secretion (see FIG. 2A).
To ascertain whether this enhanced collagen production was mediated by ALDH1A3, the collagen production profiles of F-PemI, F-PemU and F-C fibroblasts were assessed after ALDH inhibition with DEAB or disulfiram (see FIGS. 2B to 2E, where “+” and “−” indicate the presence or absence of DEAB/disulfiram respectively).
A competitive ELISA (MD Bioproducts, Zurich, Germany) method was used to quantify the matrix production from a monolayer of F-C, F-PemU and F-PemI fibroblasts. The competitive assay is a colormetric based immunoassay utilises a biotinylated polyclonal antibody to Collagen Type I and purified human collagen type I as an antigen. […]
Each experiment was carried out per manufacturer's instructions and performed with at least 4 experimental repeats and 3 biological repeats. […] Another method that has been noted for quantifying the level of collagen production in OcMMP fibroblasts is Q-PCR quantification of collagen type 1 mRNA expression post TGF-β induction (Razzaque et al., 2003, Investigative ophthalmology and visual science, 44: 3417-3423, 1616-1621 and 1998-2003). […]

[2] = tested on: F-PemI and F-PemU fibroblasts; assay: Matrix contraction by OcMMP fibroblasts after ALDH inhibition
Text: (§1) Next the ability of F-PemI and F-PemU fibroblasts to organise matrix through matrix contraction was investigated. […] This diminished contractile profile was similar in F-PemI and F-PemU fibroblasts.
(§2) To find out whether ALDH1A3 was also contributing to this phenotypic contractility we looked at the contractile profiles of F-PemI, F-PemU and F-C fibroblasts after DEAB or disulfiram ALDH inhibition.

[3] = tested on: F-C fibroblasts; assay: Matrix contraction by control fibroblasts after ALDH inhibition
Text: as §1, §2

[4] = tested on: F-PemI and F-PemU fibroblasts; assay: Proliferation of OcMMP fibroblasts after ALDH inhibition
Experimental: The proliferative capacity of F-PemI, F-PemU and F-C fibroblasts was also assessed. […] The proliferative capacities of F-PemI and F-PemU were similar (see FIG. 4A).
To find out whether ALDH1A3 also mediates this anti-proliferative phenotype we monitored the proliferation of F-PemI, F-PemU and F-C fibroblasts after addition of DEAB or disulfiram.

[5] = tested on: F-PemI and F-PemU fibroblasts; assay: Alpha-smooth muscle actin alignment under a stressed matrix
Text: Finally to have an indication of the differentiation capacity of F-PemI and F-PemU fibroblasts, their expression and alignment of alpha-smooth muscle actin under a stressed matrix was investigated. F-PemI and F-PemU lack the ability to align their alpha-smooth muscle actin into stress fibers when compared to F-C fibroblasts. The diminished alignment of alpha-smooth muscle actin was similar in both F-PemI and F-PemU fibroblasts.
To elucidate whether ALDH1A3 is contributing to this impaired alignment of alpha-smooth muscle actin in F-PemI and F-PemU fibroblasts, their alpha-smooth muscle actin alignment was imaged after being treated with DEAB and disulfiram.

CCN(CC)c1ccc(C=O)cc1 [DEAB, 4-(diethylamino)benzaldehyde]
F-PemI and F-PemU fibroblast collagen production ([1]; 10^−7M): brought down to control cell levels
F-PemI and F-PemU fibroblast collagen production ([1]; increasing concentrations): dose dependent and significant decrease
contractility of F-PemI and F-PemU fibroblasts ([2]; increasing concentrations): increased the contractility of F-PemI and F-PemU fibroblasts in a dose dependent manner
contraction of F-PemI and F-PemU fibroblasts ([2]; lowest concentration of 10^−7M): control cell levels of contraction
contractile profile of F-C fibroblasts [3]: did not have any significant effects
proliferation of F-PemI and F-PemU fibroblasts [4]: proliferating at a significantly enhanced rate
proliferation of F-PemI and F-PemU fibroblasts ([4]; lowest concentration of 10^−7M): proliferated at similar level to F-C fibroblasts
alignment of alpha-smooth muscle actin in F-PemI and F-PemU fibroblasts [5]: markedly improved the alignment
